Laboratory results published in ChEMBL document CHEMBL4196012 (Eur J Med Chem, 2018).

Key:
Escherichia coli [1] = experiment: Antibacterial activity against Escherichia coli after 24 hrs by agar streak dilution method; format: functional
Pseudomonas aeruginosa [2] = experiment: Potency index, ratio of ciprofloxacin MIC to compound MIC for antibacterial activity against Pseudomonas aeruginosa; format: functional
Escherichia coli [3] = experiment: Potency index, ratio of ciprofloxacin MIC to compound MIC for antibacterial activity against Escherichia coli; format: functional
Pseudomonas aeruginosa [4] = experiment: Antibacterial activity against Pseudomonas aeruginosa after 24 hrs by agar streak dilution method; format: functional
Escherichia coli [5] = experiment: Antibacterial activity against Escherichia coli ATCC 8739 by agar dilution method; format: functional
Klebsiella pneumoniae [6] = experiment: Antibacterial activity against Klebsiella pneumoniae ATCC 10031 by agar dilution method; format: functional
Pseudomonas aeruginosa [7] = experiment: Antibacterial activity against Pseudomonas aeruginosa ATCC 9027 by agar dilution method; format: functional
Bacillus subtilis [8] = experiment: Antibacterial activity against Bacillus subtilis PTCC 1023 by agar dilution method; format: functional
Staphylococcus aureus [9] = experiment: Antibacterial activity against Staphylococcus aureus ATCC 6538P by agar dilution method; format: functional
[10] = system: Staphylococcus epidermidis; experiment: Antibacterial activity against Staphylococcus epidermidis ATCC 12228 by agar dilution method; format: functional
Escherichia coli [11] = experiment: Potency index, ratio of ampicillin MIC to compound MIC for antibacterial activity against Escherichia coli ATCC 25922; format: functional
[12] = system: Yersinia pseudotuberculosis; experiment: Potency index, ratio of ampicillin MIC to compound MIC for antibacterial activity against Yersinia pseudotuberculosis ATCC 911; format: functional
Pseudomonas aeruginosa [13] = experiment: Potency index, ratio of ampicillin MIC to compound MIC for antibacterial activity against Pseudomonas aeruginosa ATCC 43288; format: functional
Enterococcus faecalis [14] = experiment: Potency index, ratio of ampicillin MIC to compound MIC for antibacterial activity against Enterococcus faecalis ATCC 29212; format: functional
Staphylococcus aureus [15] = experiment: Potency index, ratio of ampicillin MIC to compound MIC for antibacterial activity against Staphylococcus aureus ATCC 25923; format: functional
Bacillus cereus [16] = experiment: Potency index, ratio of ampicillin MIC to compound MIC for antibacterial activity against Bacillus cereus 709 Roma; format: functional
[17] = system: Mycolicibacterium smegmatis; experiment: Potency index, ratio of ampicillin MIC to compound MIC for antibacterial activity against Mycobacterium smegmatis ATCC 607; format: functional
Candida albicans = experiment: Potency index, ratio of ampicillin MIC to compound MIC for antifungal activity against Candida albicans ATCC 60193; format: functional
Saccharomyces cerevisiae = experiment: Potency index, ratio of ampicillin MIC to compound MIC for antifungal activity against Saccharomyces cerevisiae RSKK 251; format: functional
[18] = system: Yersinia pseudotuberculosis; experiment: Antibacterial activity against Yersinia pseudotuberculosis ATCC 911 after 18 to 24 hrs by double microdilution method; format: functional
Enterococcus faecalis [19] = experiment: Antibacterial activity against Enterococcus faecalis ATCC 29212 after 18 to 24 hrs by double microdilution method; format: functional
Staphylococcus aureus [20] = experiment: Antibacterial activity against Staphylococcus aureus ATCC 25923 after 18 to 24 hrs by double microdilution method; format: functional
Bacillus cereus [21] = experiment: Antibacterial activity against Bacillus cereus 709 Roma after 18 to 24 hrs by double microdilution method; format: functional
[22] = system: Mycolicibacterium smegmatis; experiment: Antibacterial activity against Mycobacterium smegmatis ATCC 607 after 48 to 72 hrs by double microdilution method; format: functional
Escherichia coli [23] = experiment: Antibacterial activity against Escherichia coli ATCC 35218 after 18 to 24 hrs by double microdilution method; format: functional
Pseudomonas aeruginosa [24] = experiment: Antibacterial activity against Pseudomonas aeruginosa ATCC 10145 after 18 to 24 hrs by double microdilution method; format: functional
Staphylococcus aureus [25] = experiment: Antibacterial activity against methicillin-sensitive Staphylococcus aureus ATCC 25923 after 18 hrs by broth microdilution method; format: functional; conditions: ATCC 25923, 18 h
Staphylococcus aureus [26] = experiment: Antibacterial activity against methicillin-sensitive Staphylococcus aureus ATCC 6538 after 18 hrs by broth microdilution method; format: functional; conditions: ATCC 6538, 18 h
Staphylococcus aureus [27] = experiment: Antibacterial activity against methicillin-resistant Staphylococcus aureus MIKROBANK 14001 by broth microdilution method; format: functional
[28] = system: Staphylococcus epidermidis; experiment: Antibacterial activity against Staphylococcus epidermidis ATCC 12228 after 18 hrs by broth microdilution method; format: functional; conditions: ATCC 12228, 18 h
Bacillus subtilis [29] = experiment: Antibacterial activity against Bacillus subtilis ATCC 6638 after 18 hrs by broth microdilution method; format: functional; conditions: ATCC 6638, 18 h
Micrococcus luteus = experiment: Antibacterial activity against Micrococcus luteus ATCC 10240 after 18 hrs by broth microdilution method; format: functional; conditions: ATCC 10240, 18 h
Bacillus cereus [30] = experiment: Antibacterial activity against Bacillus cereus ATCC 10876 after 18 hrs by broth microdilution method; format: functional; conditions: ATCC 10876, 18 h
Escherichia coli [31] = experiment: Antibacterial activity against Escherichia coli ATCC […] by CLSI agar dilution method; format: functional
[32] = system: Staphylococcus epidermidis; experiment: Antibacterial activity against Staphylococcus epidermidis ATCC 12228 by CLSI agar dilution method; format: functional
[33] = system: Staphylococcus epidermidis; experiment: Antibacterial activity against methicillin-sensitive Staphylococcus epidermidis by CLSI agar dilution method; format: functional
Staphylococcus aureus [34] = experiment: Antibacterial activity against Staphylococcus aureus ATCC 29213 by CLSI agar dilution method; format: functional
Staphylococcus aureus [35] = experiment: Antibacterial activity against methicillin-sensitive Staphylococcus aureus by CLSI agar dilution method; format: functional
Klebsiella pneumoniae [36] = experiment: Antibacterial activity against Klebsiella pneumoniae ATCC […] by CLSI agar dilution method; format: functional
Escherichia coli [37] = experiment: Antibacterial activity against Escherichia coli ATCC 25922 after 18 to 24 hrs by double microdilution method; format: functional
Pseudomonas aeruginosa [38] = experiment: Antibacterial activity against Pseudomonas aeruginosa ATCC 43288 after 18 to 24 hrs by double microdilution method; format: functional
[39] = Partition coefficient, log P of the compound; format: physicochemical; conditions: octanol/water
Bacillus subtilis [40] = experiment: Antibacterial activity against Bacillus subtilis NCDC 71 after overnight incubation by single disc method; format: functional
Escherichia coli [41] = experiment: Antibacterial activity against Escherichia coli NCDC 134 after overnight incubation by single disc method; format: functional
Pseudomonas aeruginosa [42] = experiment: Antibacterial activity against Pseudomonas aeruginosa NCDC105 after overnight incubation by single disc method; format: functional
Paenibacillus polymyxa = experiment: Antibacterial activity against Paenibacillus polymyxa NCDC 64 after overnight incubation by single disc method; format: functional
Staphylococcus aureus [43] = experiment: Antibacterial activity against Staphylococcus aureus NCDC 110 after overnight incubation by single disc method; format: functional

CCOc1ccc2nc(C3C(=O)CSC3N3CCN(c4cc5c(cc4F)c(=O)c(C(=O)O)cn5C4CC4)CC3)sc2c1 (stereo not given)
2 µg/mL: MIC (Escherichia coli [1]) | MIC (Pseudomonas aeruginosa [4])
3: Ratio (Pseudomonas aeruginosa [2]) | Ratio (Escherichia coli [3])

O=C(O)c1cn(C2CC2)c2cc(N3CCN(c4nnc(-c5ccc([N+](=O)[O-])s5)s4)CC3)c(F)cc2c1=O
0.008 to 0.015 µg/mL: MIC (Bacillus subtilis [8]) | MIC (Staphylococcus aureus [9]) | MIC [10]
2 to 64 µg/mL: MIC (Escherichia coli [5]) | MIC (Klebsiella pneumoniae [6]) | MIC (Pseudomonas aeruginosa [7])

O=C(O)c1cn(C2CC2)c2cc(N3CCN(Cn4nc(CN5CCSCC5)oc4=S)CC3)c(F)cc2c1=O
>41: Ratio (Escherichia coli [11]) | Ratio [12] | Ratio (Pseudomonas aeruginosa [13]) | Ratio (Enterococcus faecalis [14]) | Ratio (Staphylococcus aureus [15]) | Ratio (Bacillus cereus [16]) | Ratio [17] | Ratio (Candida albicans) | Ratio (Saccharomyces cerevisiae)

CCn1c(CN2CCN(c3ccccc3OC)CC2)nn(CN2CCN(c3cc4c(cc3F)c(=O)c(C(=O)O)cn4C3CC3)CC2)c1=S
< 0.24 µg/mL: MIC [18] | MIC (Enterococcus faecalis [19]) | MIC (Staphylococcus aureus [20]) | MIC (Bacillus cereus [21]) | MIC [22] | MIC (Escherichia coli [23]) | MIC (Pseudomonas aeruginosa [24])

O=C(O)c1cn(C2CC2)c2cc(N3CCN(Cn4nc(-c5cccc(O)c5)n(Cc5ccc(Br)cc5Cl)c4=S)CC3)c(F)cc2c1=O
0.01 to 1.32 µM: MIC (Staphylococcus aureus [25]) | MIC (Staphylococcus aureus [26]) | MIC (Staphylococcus aureus [27]) | MIC [28] | MIC (Bacillus subtilis [29]) | MIC (Micrococcus luteus) | MIC (Bacillus cereus [30])

Cn1c([N+](=O)[O-])cnc1-c1nnc(N2CCN(c3cc4c(cc3F)c(=O)c(C(=O)O)cn4C3CC3)CC2)s1
0.008 to 0.015 µg/mL: MIC (Bacillus subtilis [8]) | MIC (Staphylococcus aureus [9]) | MIC [10]
2 to 64 µg/mL: MIC (Escherichia coli [5]) | MIC (Klebsiella pneumoniae [6]) | MIC (Pseudomonas aeruginosa [7])

O=C(O)c1cn(C2CC2)c2cc(N3CCN(Cn4nc(CNc5ccc(N6CCN(c7ccc(F)cc7)CC6)c(F)c5)n(-c5ccccc5)c4=S)CC3)c(F)cc2c1=O
< 0.24 µg/mL: MIC [18] | MIC (Enterococcus faecalis [19]) | MIC (Staphylococcus aureus [20]) | MIC (Bacillus cereus [21]) | MIC [22] | MIC (Escherichia coli [23]) | MIC (Pseudomonas aeruginosa [24])

COc1ccccc1N1CCN(Cc2nn(CN3CCN(c4cc5c(cc4F)c(=O)c(C(=O)O)cn5C4CC4)CC3)c(=S)n2-c2ccccc2)CC1
< 0.24 µg/mL: MIC [18] | MIC (Enterococcus faecalis [19]) | MIC (Staphylococcus aureus [20]) | MIC (Bacillus cereus [21]) | MIC [22] | MIC (Escherichia coli [23]) | MIC (Pseudomonas aeruginosa [24])

O=C(O)c1cn(C2CC2)c2cc(N3CCN(CC(O)Cn4cc([N+](=O)[O-])nc4Cl)CC3)c(F)cc2c1=O (stereo not given)
2 to 32 µg/mL: MIC (Escherichia coli [31]) | MIC [32] | MIC [33] | MIC (Staphylococcus aureus [34]) | MIC (Staphylococcus aureus [35]) | MIC (Klebsiella pneumoniae [36])

CC1(C)S[C@@H]2[C@H](NC(=O)[C@H](N)c3ccccc3)C(=O)N2[C@H]1C(=O)O [AMPICILLIN]
10 to 128 µg/mL: MIC (Escherichia coli [37]) | MIC [18] | MIC (Pseudomonas aeruginosa [38]) | MIC (Enterococcus faecalis [19]) | MIC (Staphylococcus aureus [20]) | MIC (Bacillus cereus [21]) | MIC [22]
3.9 to 250 µg/mL: MIC (Escherichia coli [23]) | MIC (Pseudomonas aeruginosa [24])

CCOC(=O)c1cn(C2CC2)c2cc(N3CCNCC3)c(F)cc2c1=O [CIPROFLOXACIN ETHYL ESTER]
-0.065: logP [39]

COc1c(N2CCNC(C)C2)c(F)cc2c(=O)c(C(=O)O)cn(C3CC3)c12 (stereo not given) [GATIFLOXACIN]
0.06 to 16 µg/mL: MIC (Escherichia coli [31]) | MIC [32] | MIC [33] | MIC (Staphylococcus aureus [34]) | MIC (Staphylococcus aureus [35]) | MIC (Klebsiella pneumoniae [36])
5 to 100 µg/mL: MIC (Bacillus subtilis [40]) | MIC (Escherichia coli [41]) | MIC (Pseudomonas aeruginosa [42]) | MIC (Paenibacillus polymyxa) | MIC (Staphylococcus aureus [43])
